Active and inactive are the calls of the source. The rule behind the calls is not given here.

Holding throughout (type): functional
Experiment [1] is filed under the species Rattus norvegicus. Briefly: Muscle relaxant activity in rat assessed as reduction in electrically stimulated phrenic nerve-induced diaphragm contraction at 50 ug/ml.
The species entered for experiment [2] is Rattus norvegicus. Briefly: Muscle relaxant activity in rat assessed as reduction in electrically stimulated phrenic nerve-induced diaphragm contraction at 5.1 ug/ml. Also on record: scale not given: the % may be the effect or the level left.
Experiment [3] is filed under the species Rattus norvegicus. Briefly: Muscle relaxant activity in rat assessed as reduction in electrically stimulated phrenic nerve-induced diaphragm contraction at 5.1 ug/ml in presence of synstigmine.

For `C[C@@H]1c2cnccc2CC2c3c(c4ccccc4n31)CCN2C` (stereo partly drawn), the result in the experiment filed under Rattus norvegicus [1] was inactive.
With `C[C@@H]1c2cnccc2C=C2c3c(c4ccccc4n31)CCN2C` [DECUSSINE], the Activity in the experiment filed under Rattus norvegicus [2] was 50%. The outcome in the experiment filed under Rattus norvegicus [3] was Active.
